Test results published in publication PMC3668096 (FEBS letters, 2012).
One block for each compound: values may come before it.

Tests used:
B. subtilis BshA = B. subtilis BshA (Bacillus subtilis, UniProt P42982); assay: HPLC detection of UDP release at […] nm; format: biochemical
MshA = biological target: T1, MshA (Mycolicibacterium smegmatis, UniProt A0QQZ8); assay: MshA glycosyltransferase assay; format: biochemical; conditions: 1 mM UDP-GlcNAc, 1 mM 1-L-inositol-1-phosphate
T1 sequence (A0QQZ8 1-434): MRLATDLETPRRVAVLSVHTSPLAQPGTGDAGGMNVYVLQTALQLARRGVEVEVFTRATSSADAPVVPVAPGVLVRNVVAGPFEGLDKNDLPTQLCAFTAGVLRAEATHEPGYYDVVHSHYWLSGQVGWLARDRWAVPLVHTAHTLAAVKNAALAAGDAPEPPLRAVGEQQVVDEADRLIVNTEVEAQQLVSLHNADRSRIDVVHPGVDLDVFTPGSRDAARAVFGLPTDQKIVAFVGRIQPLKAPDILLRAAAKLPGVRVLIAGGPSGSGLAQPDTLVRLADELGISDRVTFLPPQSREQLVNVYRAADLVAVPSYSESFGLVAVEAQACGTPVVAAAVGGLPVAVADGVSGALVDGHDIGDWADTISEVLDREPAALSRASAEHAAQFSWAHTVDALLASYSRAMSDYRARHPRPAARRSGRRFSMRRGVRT

B. subtilis BshA, sequence (P42982 whole entry): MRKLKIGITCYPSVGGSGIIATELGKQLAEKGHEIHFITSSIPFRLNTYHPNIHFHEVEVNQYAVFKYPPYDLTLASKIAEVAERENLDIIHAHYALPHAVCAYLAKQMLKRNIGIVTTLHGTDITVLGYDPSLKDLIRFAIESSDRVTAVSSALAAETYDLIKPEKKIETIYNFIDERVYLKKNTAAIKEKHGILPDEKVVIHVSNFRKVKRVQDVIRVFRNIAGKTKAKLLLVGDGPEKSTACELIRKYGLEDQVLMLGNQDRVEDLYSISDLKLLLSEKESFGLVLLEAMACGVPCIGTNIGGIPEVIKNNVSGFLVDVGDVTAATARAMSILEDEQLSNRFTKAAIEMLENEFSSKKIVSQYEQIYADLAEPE

IC50 (B. subtilis BshA): 700 µM
SMILES: N[C@@H](CS)C(=O)N[C@H]1[C@@H](O[C@@H](CC(=O)O)C(=O)O)O[C@H](CO)[C@@H](O)[C@@H]1O [BSH, bacillithiol]

IC50 (MshA; preincubated with MSH, feedback inhibition): 3600 µM
SMILES: CC(=O)N[C@@H](CS)C(=O)NC1[C@@H](O[C@@H]2[C@H](O)[C@H](O)[C@@H](O)[C@H](O)[C@H]2O)O[C@H](CO)[C@@H](O)[C@@H]1O (stereo partly drawn) [MSH, mycothiol]

IC50 (MshA; preincubated with inhibitor): 200 µM
SMILES: CC(=O)N[C@H]1[C@@H](OP(=O)(O)OP(=O)(O)OC[C@H](C=O)OC(C=O)n2ccc(=O)[nH]c2=O)O[C@H](CO)[C@@H](O)[C@@H]1O (stereo partly drawn) [O-UDP-GlcNAc, 2’,3’-dialdehydo-UDP-N-acetylglucosamine]
